Reference: patent US6482934B1, “Methods and compositions for detecting and treating kidney diseases associated with adhesion of crystals to kidney cells” (ARCH Development Corp., priority 1995, dated 2002)
Entries after “also recorded” stand apart in the source; their conditions may differ. Counter-ions that a name gives are not always drawn. Like-named read-outs stand apart in the source and are kept apart here.

Tests used:
BSC-1 cells [1] = experiment: Crystal endocytosis by BSC-1 cells; assay type: cell-based, African green monkey; details: for combined stimulatory effects on COM crystal endocytosis: ADP 200 μM and EGF 5 ng/ml; for combined inhibitory effects on COM crystal endocytosis: RGDS 10 μg/ml, heparin 5 μg/ml and TGF-β2 2 ng/ml
Method: (§1) Renal epithelial cells of the nontransformed African green monkey line (BSC-1) were used. Cells were grown in Dulbecco-Vogt modified Eagle's medium containing 25 mM glucose (DMEM), 1.6 μM biotin and 1% calf serum at 38° C. in a CO2 incubator. Under these conditions, BSC-1 cells achieved confluence at 10^6 cells per 60-mm plastic dish (Nunc). High-density, quiescent cultures were prepared by plating 2×10^6 cells in a 60-mm dish. The spent medium was changed after 3 days so that there were 3-4×10^6 cells/dish 6 days later. Medium was then aspirated and replaced with fresh medium containing […] and 0.01% calf serum; 3 days later the quiescent cultures were used for study.
(§2) At specified times after addition of crystals to high-density, quiescent cultures the medium was aspirated and a solution of crystalline trypsin was used to detach cells which were then inspected under a polarizing microscope. One hundred cells from each culture were counted, and each cell was scored for the presence of one or more internalized crystal(s).

BSC-1 cells [2] = experiment: [14C]COM crystal adhesion to BSC-1 cell monolayers; assay type: cell-based, African green monkey; details: for IC50 / Half-maximal concentration: concentration that inhibited crystal adhesion by 50%; for IC50 / Kd / Half-maximal concentration / Langmuir affinity constant (dissociation constant): N.I. = noninhibitory; for IC50: read-out: Half-maximal concentration; for Kd / Langmuir affinity constant (dissociation constant): slope of Langmuir isotherm plot of crystal adhesion; for Kd: read-out: Langmuir affinity constant (dissociation constant); for effect on adhesion of COM crystals: concentrations as high as 1 μM
Method: as §1
(§3) Crystals are sterilized by heating to 180° C. overnight.
(§4) High-density, quiescent cultures of BSC-1 cells, MDCK cells, or Balb/c3T3 fibroblasts are prepared. At the time of assay, the medium is aspirated and replaced with 5 ml of phosphate-buffered saline (PBS) (10 mM Na2PO4, 155 mM NaCl, 5.4 mM KCl, pH 7.4 at 37° C.) to which the compound under investigation is added. […] The culture dishes are gently agitated for 5 seconds to uniformly distribute crystals which subsequently settle to the surface of the cell monolayer under the force of gravity. After two minutes buffer is aspirated and the cells are then washed three times with PBS (5 ml). The cell monolayer is then scraped directly into a scintillation vial containing 6 N HCl (0.5 ml) to which 4.5 ml of Ecoscint (National Diagnostics, E. Palmetto, Fla.) is added, and the amount of radioactivity is measured as described by Riese, et al. (1992).

MDCK cells [3] = experiment: Crystal endocytosis by MDCK cells; assay type: cell-based, canine; details: COM crystals 200 μg/ml; for inhibition of COM crystal endocytosis by MDCK cells: 10 μg/ml
Method: (§5) Madin-Darby Canine Kidney (MDCK) cells were grown in DMEM containing 2% calf serum and 1.6 μM biotin as described previously. To prepare high-density, quiescent cultures 2×10^6 cells/60-mm dish were plated in DMEM containing 2% calf serum and 1.6 μM biotin. The next day medium was aspirated and replaced with fresh medium containing 0.5% calf serum and biotin. One day later the cultures were used for study.
as §2

Balb/c3T3 fibroblasts [4] = experiment: Crystal endocytosis by Balb/c3T3 fibroblasts; assay type: cell-based; details: COM crystals 200 μg/ml; for effect on crystal uptake by fibroblasts: 10 μg/ml
Method: (§6) Balb/c3T3 fibroblasts were grown in DMEM containing 10% calf serum. To prepare high-density, quiescent cultures, 7×10^5 cells were plated per 60-mm dish. Two days later the medium was aspirated and replaced with fresh medium containing 1% calf serum and 1.6 μM biotin; the cells were used one day later when a density of […] was reached.
as §2

BSC-1 cells [5] = experiment: Adhesion of agent-coated COM crystals to BSC-1 cells; assay type: cell-based, African green monkey; details: compared with uncoated control crystals
Method: Each tube is then centrifuged at 3000 g for 5 minutes. The supernatant is gently aspirated and replaced with a supersaturated calcium oxalate solution to resuspend the coated crystals. To assure removal of any nonabsorbed compound, crystals are resuspended and washed three times in succession. Cell-associated radioactivity is determined 2 minutes after addition of these coated crystals as described herein.

BSC-1 cells [6] = experiment: Endocytosis of agent-coated COM crystals by BSC-1 cells; assay type: cell-based, African green monkey; details: THP 5×10^−8 M; 6×10^−10M in the medium
From the text: as §2

MDCK cells [7] = experiment: [14C]COM crystal adhesion to MDCK cells; assay type: cell-based, canine; details: 0.55 μM heparin
Method: as §5, §3, §4

Balb/c3T3 fibroblasts [8] = experiment: [14C]COM crystal adhesion to 3T3 fibroblasts; assay type: cell-based; details: 0.55 μM heparin; COM crystals 200 μg/ml
Method: as §6, §3, §4

IC50 (BSC-1 cells [2]) | Molecule | concentration above which COM crystal adhesion was inhibited (BSC-1 cells [2]) | Kd (BSC-1 cells [2]) | effect on adhesion of COM crystals to BSC-1 cells (in words) (BSC-1 cells [2]) | adhesion of crystals previously coated with the molecule (BSC-1 cells [5]) | other results
– | Nc1ncnc2c1ncn2[C@@H]1O[C@H](COP(=O)(O)OP(=O)(O)O)[C@@H](O)[C@H]1O [ADP, adenosine diphosphate] | – | – | – | – | increase in COM crystal uptake compared to control (BSC-1 cells [1]; ADP 2 μM): 52%; combined stimulatory effects on COM crystal endocytosis (BSC-1 cells [1]): not additive
20 nM | Polyvinyl sulfate | > 0.1 µM | 49 nM | – | – | –
– | O=C(O)CC(O)(CC(=O)O)C(=O)O [Sodium citrate] | above 250 μM | 431000 nM | inhibited binding of COM crystals | – | IC50 (BSC-1 cells [2]; Chlorocebus sabaeus, BSC-1): 200000 nM
– | protamine sulfate | – | – | – | – | effect on heparin inhibition of crystal binding, added after heparin (BSC-1 cells [2]; after 30 minutes exposure to heparin): completely reversed inhibition of crystal binding; effect on heparin inhibition of crystal adhesion, added together with heparin (BSC-1 cells [2]; protamine sulfate 100 μg/ml with heparin 10 μg/ml): abolished the polyanion's inhibitory effect; effect on crystal adhesion, alone (BSC-1 cells [2]; protamine sulfate alone): inert
– | arginine-glycine-aspartic acid-serine [RGDS] | – | – | – | – | inhibition of COM crystal endocytosis compared to control (BSC-1 cells [1]; RGDS 5 μg/ml): 30%; combined inhibitory effects on COM crystal endocytosis (BSC-1 cells [1]): not additive; maximal inhibition of COM crystal endocytosis (BSC-1 cells [1]; RGDS at higher concentrations (above 5 μg/ml)): 41%; inhibition of COM crystal endocytosis by MDCK cells (MDCK cells [3]): 48%; effect on crystal uptake by fibroblasts (Balb/c3T3 fibroblasts [4]): did not alter crystal uptake by fibroblasts
600 nM | Chondroitin sulfate A | above 1.4 μM | 38 nM | prevented binding of COM crystals | – | –
10 nM | Polyglutamic acid | > 0.02 µM | 26 nM | blocked adherence of COM crystals | less than control | –
– | THP: urinary Tamm-Horsfall glycoprotein, most abundant protein in human urine | – | – | no effect | – | Half-maximal concentration (BSC-1 cells [2]): N.I.; effect on adhesion of COM crystals to BSC-1 cells (in words) (BSC-1 cells [2]; listed as Tamm-Horsfall glycoprotein): did not; Langmuir affinity constant (dissociation constant) (BSC-1 cells [2]): N.I.; decrease in COM crystal endocytosis (BSC-1 cells [1]; THP 5×10−8 M): 34%; decrease in COM crystal endocytosis (BSC-1 cells [1]; THP 10^−8 M): 21%; endocytosis of crystals incubated with THP and added directly without centrifuging (BSC-1 cells [6]): to the same extent as uncoated crystals
– | CC(=O)NC1C(O)OC(COS(=O)(=O)O)C(O)C1OC1OC(C(=O)O)=CC(O)C1O (centres unmarked) [6-S] | – | – | without effect | – | –
– | Fibronectin | – | – | – | – | maximal inhibition of COM crystal endocytosis (BSC-1 cells [1]; fibronectin 2.5 μg/ml): 33%; inhibition of COM crystal endocytosis by MDCK cells (MDCK cells [3]): 59%; effect on crystal uptake by fibroblasts (Balb/c3T3 fibroblasts [4]): did not alter crystal uptake by fibroblasts
20 nM | Uropontin: urinary glycoprotein, inhibitor of COM crystal growth | – | 43 nM | inhibited binding of COM crystals; also recorded: blocking adhesion of COM crystals to BSC-1 cells | less than control | block of COM crystal binding (BSC-1 cells [2]; uropontin 0.1 μM): 73%
10 nM | Dextran sulfate | > 0.01 µM | 13 nM | – | less than control | –
– | Chondroitin sulfate C | – | – | – | – | Half-maximal concentration (BSC-1 cells [2]): N.I.; effect on COM crystal adherence (BSC-1 cells [2]; concentrations as high as 37 μM): no effect; Langmuir affinity constant (dissociation constant) (BSC-1 cells [2]): N.I.
15 nM | heparin | – | 43 nM | blocked | less than control | adhesion of crystals after heparin added later than crystals (BSC-1 cells [2]; heparin 10 μg/ml (0.55 μM) added 1 to 30 minutes after crystals, measured after 60 minutes): appeared to stop immediately; displacement of crystals already bound to cells (BSC-1 cells [2]; heparin 10 μg/ml present for up to an additional 55 minutes): did not appear to displace crystals already bound to cells; decrease in adherence of COM crystals (BSC-1 cells [2]; heparin 18,000 Da at 0.006 μM): 33%; Maximal inhibition of COM crystal adhesion (BSC-1 cells [2]; heparin 18,000 Da at concentrations above 0.028 μM): 95%; maximal inhibition of adhesion of COM crystals to MDCK cells (MDCK cells [7]): 89%; decrease in adhesion of COM crystals to 3T3 fibroblasts (Balb/c3T3 fibroblasts [8]): 85%; combined inhibitory effects on COM crystal endocytosis (BSC-1 cells [1]): not additive; decrease in COM crystal endocytosis compared to control (BSC-1 cells [1]; heparin 2 μg/ml): 36%; effect on COM crystal uptake at higher concentration (BSC-1 cells [1]; heparin as high as 100 μg/ml): did not inhibit uptake further; inhibition of COM crystal endocytosis in MDCK cells (MDCK cells [3]; heparin): 60%; inhibition of COM crystal endocytosis in fibroblasts (Balb/c3T3 fibroblasts [4]; heparin): 24%
20 nM | Hyaluronic acid | above 0.01 μM | 13 nM | prevented binding of COM crystals | – | –
– | CC(=O)NC1C(O)OC(CO)C(O)C1OC1OC(C(=O)O)=CC(O)C1O (centres unmarked) [0-S] | – | – | without effect | – | –
20 nM | Pentosan polysulfate | above 0.33 μM | 131 nM | – | – | –
100 nM | Heparan sulfate | above 0.8 μM | 881 nM | prevented binding of COM crystals | – | effect on endocytosis of COM crystals (BSC-1 cells [1]; heparan sulfate 2-25 μg/ml): did not alter endocytosis of COM crystals
– | CC(=O)NC1C(O)OC(CO)C(OS(=O)(=O)O)C1OC1OC(C(=O)O)=CC(O)C1O (centres unmarked) [4-S] | – | – | without effect | – | –
100 nM | Chondroitin sulfate B | > 0.4 µM | 206 nM | prevented binding of COM crystals | less than control | –
– | Polyarginine | – | – | – | to the same extent as did uncoated crystals | Half-maximal concentration (BSC-1 cells [2]): N.I.; effect on adhesion of COM crystals (BSC-1 cells [2]): no effect; Langmuir affinity constant (dissociation constant) (BSC-1 cells [2]): N.I.
7 nM | Polyaspartic acid | above 0.007 μM | 23 nM | blocked adherence of COM crystals | less than control | –
– | albumin | – | – | – | to the same extent as did uncoated crystals | –
– | EGF: epidermal growth factor, mitogen | – | – | – | – | combined stimulatory effects on COM crystal endocytosis (BSC-1 cells [1]): not additive; increase in COM crystal endocytosis compared to control (BSC-1 cells [1]; EGF 10 ng/ml): 55%

Molecule | IC50 (BSC-1 cells [2]) | concentration above which COM crystal adhesion was inhibited (BSC-1 cells [2]) | Kd (BSC-1 cells [2]) | effect on adhesion of COM crystals to BSC-1 cells (in words) (BSC-1 cells [2]) | adhesion of crystals previously coated with the molecule (BSC-1 cells [5]) | other results
Polylysine | 2500 nM | – | – | – | to the same extent as did uncoated crystals | effect on adhesion of COM crystals (BSC-1 cells [2]): no effect
O=C(O)CC(CC(=O)O)(OP(=O)(O)O)C(=O)O [Phosphocitrate] | 50000 nM | above 50 μM | 43800 nM | – | – | –
